Experimental data: PubChem BioAssay AID248 (DTP/NCI, 2004)
Several values for one entry are separate records, joined by “and”; a condition that tells them apart may be missing. Identical values can stand only once. Inconclusive results and toxic doses are left out. No stated cut-off is given here; in the data, active means T/C of 150% or more; inactive means T/C below 125%.

System: L1210 leukemia ip in BDF1 mice, survival T/C
Assay: NCI In Vivo Anticancer Drug Screen. Data for tumor model L1210 Leukemia (intraperitoneal) in B6D2F1 (BDF1) mice
Settings: endpoint: mean survival time, higher = longer survival
Summary of the method: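 Tumor cells were implanted, animals were treated, and survival was followed. The result divides the treated measurement by the vehicle-control measurement.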

[1] = dose: 100.0 mg/kg/injection, schedule: Q01DX009 (ip), vehicle: saline
[2] = dose: 100.0 mg/kg/injection, schedule: Q04DX003 (ip), vehicle: saline with Tween-80
[3] = dose: 100.0 mg/kg/injection, schedule: Q04DX003 (ip), vehicle: saline
[4] = dose: 200.0 mg/kg/injection, schedule: Q01DX009 (ip), vehicle: saline
[5] = dose: 200.0 mg/kg/injection, schedule: Q04DX003 (ip), vehicle: saline with Tween-80
[6] = dose: 200.0 mg/kg/injection, schedule: Q04DX003 (ip), vehicle: saline
[7] = dose: 400.0 mg/kg/injection, schedule: Q01DX009 (ip), vehicle: saline
[8] = dose: 400.0 mg/kg/injection, schedule: Q04DX003 (ip), vehicle: saline
[9] = dose: 100.0 mg/kg/injection, schedule: Q01DX001 (ip), vehicle: carboxymethylcellulose (CMC)
[10] = dose: 200.0 mg/kg/injection, schedule: Q01DX001 (ip), vehicle: carboxymethylcellulose (CMC)

Measured: T/C

CCC[CH2][Sn]1([CH2]CCC)[O]OC(c2ccc(OC)cc2)[O]1 (stereo unspecified)
inactive: dose: 6.25 mg/kg/injection, schedule: Q01DX005 (sc), vehicle: olive oil, sesame oil, peanut oil 95 % of control | dose: 6.25 mg/kg/injection, schedule: Q01DX009 (sc), vehicle: olive oil, sesame oil, peanut oil 104 % of control and 88 % of control | dose: 12.5 mg/kg/injection, schedule: Q01DX005 (sc), vehicle: olive oil, sesame oil, peanut oil 106 % of control | dose: 12.5 mg/kg/injection, schedule: Q01DX009 (sc), vehicle: olive oil, sesame oil, peanut oil 104 % of control and 91 % of control | dose: 25.0 mg/kg/injection, schedule: Q01DX005 (sc), vehicle: olive oil, sesame oil, peanut oil 95 % of control | dose: 25.0 mg/kg/injection, schedule: Q04DX002 (sc), vehicle: olive oil, sesame oil, peanut oil 97 % of control | dose: 50.0 mg/kg/injection, schedule: Q04DX002 (sc), vehicle: olive oil, sesame oil, peanut oil 106 % of control | dose: 100.0 mg/kg/injection, schedule: Q04DX002 (sc), vehicle: olive oil, sesame oil, peanut oil 100 % of control

COc1ccc(NS(=O)c2ccc(Oc3ccccc3)cc2)cc1 (stereo unspecified)
inactive: dose: 25.6 mg/kg/injection, schedule: Q04DX002 (ip), vehicle: saline with Tween-80 106 % of control | dose: 64.0 mg/kg/injection, schedule: Q04DX002 (ip), vehicle: saline with Tween-80 112 % of control | dose: 160.0 mg/kg/injection, schedule: Q04DX002 (ip), vehicle: saline with Tween-80 101 % of control | dose: 400.0 mg/kg/injection, schedule: Q04DX002 (ip), vehicle: saline with Tween-80 93 % of control

O=C(O)C(Oc1ccccc1)Oc1ccccc1
inactive: dose: 50.0 mg/kg/injection, schedule: Q01DX001 (ip), vehicle: alkali diluted with saline 100 % of control | dose: 100.0 mg/kg/injection, schedule: Q01DX001 (ip), vehicle: alkali diluted with saline 96 % of control | dose: 200.0 mg/kg/injection, schedule: Q01DX001 (ip), vehicle: alkali diluted with saline 100 % of control | dose: 400.0 mg/kg/injection, schedule: Q01DX001 (ip), vehicle: alkali diluted with saline 96 % of control

CCCCCCCCCCCCSC1=CC(=O)C=CC1=O
inactive: dose: 5.0 mg/kg/injection, schedule: Q01DX001 (ip), vehicle: saline 101 % of control | dose: 10.0 mg/kg/injection, schedule: Q01DX001 (ip), vehicle: saline 108 % of control | dose: 20.0 mg/kg/injection, schedule: Q01DX001 (ip), vehicle: saline 97 % of control | dose: 40.0 mg/kg/injection, schedule: Q01DX001 (ip), vehicle: saline 112 % of control | dose: 80.0 mg/kg/injection, schedule: Q01DX001 (ip), vehicle: saline 112 % of control

COC(=O)C1C2CC(=O)C(C2)C1C(=O)OC (stereo unspecified)
inactive: [1] 96 % of control | [2] 98 % of control | [3] 100 % of control | [4] 105 % of control | [5] 86 % of control | [6] 100 % of control | [7] 99 % of control | dose: 400.0 mg/kg/injection, schedule: Q04DX003 (ip), vehicle: saline with Tween-80 91 % of control | [8] 96 % of control

N#CC(C#N)=Cc1ccc(Cl)cc1
inactive: dose: 50.0 mg/kg/injection, schedule: Q01DX001 (ip), vehicle: other 105 % of control | dose: 100.0 mg/kg/injection, schedule: Q01DX001 (ip), vehicle: other 102 % of control | dose: 200.0 mg/kg/injection, schedule: Q01DX001 (ip), vehicle: other 113 % of control

Nc1nc(C=O)c(CCc2ccccc2)c(=O)[nH]1
inactive: [2] 100 % of control | [5] 97 % of control

Oc1cccc2ccc(Cl)nc12
inactive: dose: 75.0 mg/kg/injection, schedule: Q01DX001 (ip), vehicle: carboxymethylcellulose (CMC) 97 % of control | dose: 150.0 mg/kg/injection, schedule: Q01DX001 (ip), vehicle: carboxymethylcellulose (CMC) 101 % of control | dose: 300.0 mg/kg/injection, schedule: Q01DX001 (ip), vehicle: carboxymethylcellulose (CMC) 97 % of control

NC(=O)NNC(O)(C(F)(F)F)C(F)(F)F
inactive: [9] 103 % of control | [10] 108 % of control

COc1ccc(C)cc1NC(=O)OCCSc1ccc(Cl)cc1
inactive: dose: 50.0 mg/kg/injection, schedule: Q01DX009 (ip), vehicle: gum acacia 97 % of control and 102 % of control | dose: 100.0 mg/kg/injection, schedule: Q01DX001 (ip), vehicle: gum acacia 95 % of control and 97 % of control | dose: 100.0 mg/kg/injection, schedule: Q04DX002 (ip), vehicle: gum acacia 97 % of control and 91 % of control | dose: 100.0 mg/kg/injection, schedule: Q04DX003 (ip), vehicle: gum acacia 96 % of control and 97 % of control | dose: 200.0 mg/kg/injection, schedule: Q01DX001 (ip), vehicle: gum acacia 95 % of control and 100 % of control | dose: 200.0 mg/kg/injection, schedule: Q04DX002 (ip), vehicle: gum acacia 93 % of control | dose: 200.0 mg/kg/injection, schedule: Q04DX003 (ip), vehicle: gum acacia 92 % of control and 96 % of control | dose: 400.0 mg/kg/injection, schedule: Q01DX001 (ip), vehicle: gum acacia 94 % of control and 97 % of control | dose: 400.0 mg/kg/injection, schedule: Q01DX009 (ip), vehicle: gum acacia 88 % of control and 90 % of control | dose: 400.0 mg/kg/injection, schedule: Q04DX002 (ip), vehicle: gum acacia 98 % of control and 90 % of control | dose: 400.0 mg/kg/injection, schedule: Q04DX003 (ip), vehicle: gum acacia 100 % of control and 101 % of control

C/C(=N/N=C(N)N)c1ccc(F)cc1
inactive: dose: 15.0 mg/kg/injection, schedule: Q01DX Z (ip), vehicle: carboxymethylcellulose (CMC) 95 % of control | dose: 15.0 mg/kg/injection, schedule: Q01DX Z (oral), vehicle: carboxymethylcellulose (CMC) 113 % of control | dose: 30.0 mg/kg/injection, schedule: Q01DX Z (ip), vehicle: carboxymethylcellulose (CMC) 100 % of control | dose: 30.0 mg/kg/injection, schedule: Q01DX Z (oral), vehicle: carboxymethylcellulose (CMC) 98 % of control | dose: 60.0 mg/kg/injection, schedule: Q01DX Z (oral), vehicle: carboxymethylcellulose (CMC) 103 % of control

CCOC(=O)C(=CN1CCCCCC1)C(=O)OCC
inactive: [3] 106 % of control | [6] 97 % of control | [8] 89 % of control

CCCCCCC(O)C/C=C\CCCCCCCCO (stereo unspecified)
inactive: [1] 121 % of control | [3] 101 % of control | [4] 115 % of control | [6] 99 % of control | [7] 103 % of control | [8] 104 % of control

CCCC(Sc1ncnc2nc[nH]c12)C(=O)O (stereo unspecified)
inactive: [9] 95 % of control | [10] 98 % of control | dose: 400.0 mg/kg/injection, schedule: Q01DX001 (ip), vehicle: carboxymethylcellulose (CMC) 103 % of control

CC(=O)OC1OCC(COC(=O)c2ccc([N+](=O)[O-])cc2)C1OC(=O)c1ccc([N+](=O)[O-])cc1 (stereo unspecified)
inactive: dose: 100.0 mg/kg/injection, schedule: Q01DX001 (ip), vehicle: saline 92 % of control | dose: 200.0 mg/kg/injection, schedule: Q01DX001 (ip), vehicle: saline 92 % of control | dose: 400.0 mg/kg/injection, schedule: Q01DX001 (ip), vehicle: saline 95 % of control

CCOc1ccc(NC(=O)c2cc(C(=O)O)c(C(=O)Nc3ccc(OCC)cc3)cc2C(=O)O)cc1
inactive: dose: 100.0 mg/kg/injection, schedule: Q04DX002 (ip), vehicle: Klucel (hydroxypropylcellulose) (HPC) 109 % of control | dose: 400.0 mg/kg/injection, schedule: Q04DX002 (ip), vehicle: Klucel (hydroxypropylcellulose) (HPC) 109 % of control

Cc1ccc(S(=O)(=O)N2CCC(=O)c3ccc(Cl)cc32)cc1
inactive: dose: 100.0 mg/kg/injection, schedule: Q04DX003 (ip), vehicle: Klucel (hydroxypropylcellulose) (HPC) 93 % of control | dose: 200.0 mg/kg/injection, schedule: Q04DX003 (ip), vehicle: Klucel (hydroxypropylcellulose) (HPC) 94 % of control | dose: 400.0 mg/kg/injection, schedule: Q04DX003 (ip), vehicle: Klucel (hydroxypropylcellulose) (HPC) 96 % of control
